Measurements taken from patent publication EP3720857B1, “2-OXO-5H-CHROMENO[4,3-B]PYRIDINES FOR USE IN THE TREATMENT OF HEPATITIS B” (Galapagos NV, priority 2017, dated 2019).

Tested on: hepatitis virus B (HBV) infection
Assay: iCell hepatocytes assay, delayed assay (compounds added three days after HBV infection)
Assay type: cell-based
Conditions: for EC50: Hepatitis B virus, Hepatocyte, HBs ELISA
Procedure: The principle of the iCell hepatocyte 2.0 96 well assay is to evaluate the inhibitory effect of a test compound on hepatitis virus B (HBV) infection. In this assays the HBV core antigen (HBcAg) and/or extracellular antigen (HBeAg) and/or surface antigen (HBsAg) are used as a marker for HBV infection. Nuclei count may be used as an indication for compound toxicity.
In the standard assay set-up HBV infection and compound addition are performed on the same day, in the delayed assay the compounds are added three days after HBV infection. iCell hepatocytes 2.0 are human hepatocytes derived from induced pluripotent stem cells (iPSc) purchased from Cellular Dynamics international (CDI, R1027).
At day 0, iCell hepatocytes 2.0 (CDI, R1027) are thawed and seeded in collagen I coated 96well plates at 112 000c/well (100µL) in plating medium (RPMI supplemented with B27 supplement, 20 ng/mL recombinant human oncostatin M (OSM), 25µg/mL gentamicin, 0.1µM Dexamethasone and iCell medium supplement provided by CDI). Plates are incubated at 37°C, 5% CO2 and daily refreshed with plating medium for the following four days.
On day 5 and 6, plates are refreshed with 100µL maintenance medium (RPMI supplemented with B27 supplement, 25µg/mL gentamicin, 0.1µM Dexamethasone, and iCell medium supplement provided by CDI) and incubated at 37°C, 5% CO2 until the following day.
On day 7 (day of infection), the maintenance medium is removed from the assay plates and cells are infected with 50 µL of HBV mix (HBV virus, 4% PEG, 0% or 2% DMSO in maintenance medium). The assay plates were incubated overnight at 37°C, 5% CO2.
At day 1 post infection (day8), 50µL of HBV mix is removed from the assay plates and refreshed with 100 µL of maintenance medium. The assay plates are incubated at 37°C, 5% CO2 for three days.
At day 4 post infection (day 11) and day 7 post infection (day14), the supernatant is removed and 100 µL of compound series diluted 1/500 in maintenance medium is added to the assay plates (8 point serial dilution using 1/3 dilution steps in 100% DMSO or 8 point serial dilution using ¼ dilution steps, normalized for 0.2% DMSO. The assay plates were incubated at 37°C, 5% CO2 for three days.
At day 10 post infection (day 17), 100µL of supernatant is harvested and frozen to -20°C. The cells are fixed with 50 µL of 3.7% formaldehyde and incubated for 30 min at room temperature. After fixation, cells are washed four times with phosphate buffer saline (PBS) with the plate washer (Select 405, microplate washer, Biotek) and subjected to HBc staining. harvested supernatant is used for HBe and/or HBs ELISA.
The assay plates are blocked with blocking buffer (2% FBS, 3% BSA, 0.2% TritonX100 in PBS) for 1 h at room temperature.
After blocking, the assay plates are tapped manually and incubated with 50 µL diluted primary antibody (1/700 Rabbit-anti-HBc Ag, Dako, B0586 or 1/350 Rabbit-anti-HBc Ag, Invitrogen, PA516368) in blocking buffer and incubated for 90 min at room temperature.
After 4 washes of PBST (1XPBS + 0.05% Tween) with the plate washer, the assay plates are incubated with 100 µL of secondary antibody (Donkey-anti-rabbit Alexa 488, Lifetechnologies, A21206) 1/500 diluted in blocking buffer and incubated for 60 min at room temperature in the dark, then washed 4 times with PBST on the plate washer and incubated with 100µL of DAPI (Sigma D9542, stock 5mg/mL) 1/10000 diluted in PBS for 15-30 min at room temperature in the dark.
Finally, the assay plates are read out on a InCell Analyzer 2200 (GE Healthcare). […]
After blocking, 30 µL of sample and HBe Ag standard (recombinant hepatitis B virus E antigen protein, 4mg/mL, Abcam, ab91273) are added to the plate. The HBe Ag standard is 1/3 diluted in blocking buffer starting from 1.25µg/mL. A vehicle control is also included. The plate is incubated for 30 min at room temperature.
After sample incubation, the plates are washed 4 times with PBST on a platewasher followed by 2 washed of PBS. […]

COCCCOc1cc2c(cc1F)-c1c(cc(C(=O)O)c(=O)n1C1CC1)C(C(C)C)O2 (stereo not drawn) [Compound 1, 1-cyclopropyl-9-fluoro-5-isopropyl-8-(3-methoxypropoxy)-2-oxo-5H-chromeno[4,3-b]pyridine-3-carboxylic acid]
Delayed assay HBs ELISA % inhibition: ++ (50-75%)
EC50: 0.001 to 20 nM

COCCCOc1cc2c(cc1Cl)-c1c(cc(C(=O)O)c(=O)n1C1CC1)CO2 [Compound 6, 9-chloro-1-cyclopropyl-8-(3-methoxypropoxy) -2-oxo-5H-chromeno[4,3-b]pyridine-3-carboxylic acid]
Delayed assay HBs ELISA % inhibition: ++ (50-75%)
EC50: 22 to 50 nM

CCC1Oc2cc(OCCCOC)c(F)cc2-c2c1cc(C(=O)O)c(=O)n2C1CC1 (stereo not drawn) [Compound 16, 1-cyclopropyl-5-ethyl-9-fluoro-8-(3-methoxypropoxy) -2-oxo-5H-chromeno[4,3-b]pyridine-3-carboxylic acid]
Delayed assay HBs ELISA % inhibition: ++ (50-75%)
EC50: 22 to 50 nM

COCCCOc1cc2c(cc1Cl)-c1c(cc(C(=O)O)c(=O)n1C1CC1)C(C(C)(C)COC)O2 (stereo not drawn) [Compound 19, 9-chloro-1-cyclopropyl-5-(2-methoxy-1,1-dimethyl-ethyl)-8-(3-methoxypropoxy) -2-oxo-5H-chromeno[4,3-b]pyridine-3-carboxylic acid]
Delayed assay HBs ELISA % inhibition: ++ (50-75%)
EC50: 22 to 50 nM

COCCCOc1cc2c(cc1F)-c1c(cc(C(=O)O)c(=O)n1C1CC1)[C@H](C(C)C)O2 [Compound 44, (5S)-1-cyclopropyl-9-fluoro-5-isopropyl-8-(3-methoxypropoxy)-2-oxo-5H-chromeno[4,3-b]pyridine-3-carboxylic acid]
Delayed assay HBs ELISA % inhibition: ++ (50-75%)
EC50: > 50 nM

COCCCOc1cc2c(cc1Cl)-c1c(cc(C(=O)O)c(=O)n1C1CC1)[C@H](C1(C)COC1)O2 [Compound 46, (5R)-9-chloro-1-cyclopropyl-8-(3-methoxypropoxy)-5-(3-methyloxetan-3-yl)-2-oxo-5H-chromeno[4,3-b]pyridine-3-carboxylic acid]
Delayed assay HBs ELISA % inhibition: ++ (50-75%)
EC50: 0.001 to 20 nM
